Measured values published in patent US9821070B2 (OPKO Biologics Ltd., priority 2012, dated 2017).

Columns and labels:
[1] = Obese (ob/ob) mouse model, Study 2 (MOD-6031 chronic pharmacology); assay type: in vivo, male ob/ob mice; conditions: OXM 6000 nmoles/kg bid sc for 32 days
Method: Body weight, food and water intake were recorded daily. […] Body weight, food and water intake were measured daily.
Oral glucose tolerant test (OGTT) studies were performed on days 2 and day 30 (FIGS. 10 and 11, respectively).

[2] = molecular target: GLP-1 receptor (Homo sapiens, UniProt P43220); conditions: cAMP Hunter CHO-K1 GLP1R
Sequence of GLP-1 receptor (P43220 24-463): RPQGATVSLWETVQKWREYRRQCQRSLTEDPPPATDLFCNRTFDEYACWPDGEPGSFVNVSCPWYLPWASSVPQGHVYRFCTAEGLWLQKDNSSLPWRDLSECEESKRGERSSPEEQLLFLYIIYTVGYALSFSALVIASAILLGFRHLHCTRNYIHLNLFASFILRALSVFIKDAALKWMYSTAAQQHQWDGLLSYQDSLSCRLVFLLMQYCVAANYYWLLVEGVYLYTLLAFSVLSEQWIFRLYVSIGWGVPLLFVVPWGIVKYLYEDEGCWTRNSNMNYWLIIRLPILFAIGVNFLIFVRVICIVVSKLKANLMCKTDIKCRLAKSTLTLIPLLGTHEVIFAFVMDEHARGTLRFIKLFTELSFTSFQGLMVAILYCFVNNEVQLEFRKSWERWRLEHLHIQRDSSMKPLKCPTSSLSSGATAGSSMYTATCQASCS
Method: Cells cAMP concentrations were quantified by HTRF assay (Cisbio 62AM4PEB) and EC50 parameter was analyzed by PRISM software. The cAMP Hunter™ CHO-K1 GLP1R secretes cAMP upon binding of the ligand to the receptor. […] Ligands were diluted in diluent contains IBMX and were added in duplicate to the culture wells for 30 min at 37° C. with 5% CO2. […] The dose dependent curves were established and the binding affinities (EC50) of various ligands were calculated using PRISM software by applying the best fit dose response model (Four parameters).

## Oxyntomodulin [OXM]
[1]
  body weight reduction over the study: 10.3%
[2]
  higher GLP-1 receptor binding activation compared to the heterogeneous PEG30-FMS-OXM: 5.9 fold
